Source: a melting point compilation (Tetko et al.; mined from patent text by program, amines drawn as free bases though some values may be those of a salt)

melting point [°C] | SMILES
142 to 144 | CC1CC(C)CN(CN2C(=O)CN(CC(C)N3CC(=O)N(CN4CC(C)CC(C)C4)C(=O)C3)CC2=O)C1 (stereo not given)
291 to 293 | COc1cc(OC)c2c(=O)[nH]c(-c3cc(C)c(O)c(C)c3)nc2c1
97 to 98 | COc1cc(COc2nn(C)cc2/C=C\c2cscn2)ccc1OCc1nc(-c2ccco2)oc1C
84 | O=[N+]([O-])c1cccnc1Sc1nc(Cl)no1
184 to 186 | O=Cc1cc(=O)n2ccsc2n1
138 to 139 | O=C(O)[C@H](Cc1ccc(C(F)(F)F)cc1)[C@@H](O)c1ccccc1 (racemic)
266 | CCn1c(N)c(C(=O)NC)c(=O)c2ccc(-c3ccc(CC(=O)Nc4ccccn4)nc3)nc21
141 to 142 | CCOC(=O)Cn1nc(-c2ccc(OC)cc2)cc(C(=O)NC)c1=O
221 to 223 | CC1(C)COC(c2ccc(-c3ccc4cc(O)ccc4c3)cc2)=N1
165 to 167 | CCOCc1nc2c(N)nc3cc(N4CCCC4=O)ccc3c2n1CCCOC(C)C
141 to 142 | OC(CCl)CNc1nc2ccnc(-c3cccc(C(F)(F)F)c3)n2n1 (stereo not given)
116 to 118 | Cc1ccc(S(=O)(=O)n2cc(CCN(Cc3ccccc3)Cc3ccccc3)c3ccccc32)cc1
180 to 188 | CC(C)(C)OC(=O)Nc1cc2nc(-c3ccccc3)nn2cc1F
142 to 144 | CC(=O)OC1CSC(Oc2cc(-c3ccnc(F)c3)cnc2F)C(OC(C)=O)C1OC(C)=O (stereo not given)
110 to 112 | NS(=O)(=O)OCCN1CCCC1=O
157 to 159 | Cn1c(SC(C(=O)O)c2ccccc2)nc2ccccc21 (stereo not given)
87 to 91 | COc1ccc2c(c1)CCC1C2CCC2(C)C(O)CC(C)(C)C12 (stereo not given)
226 to 228 | CCn1cc(C(=O)O)c(=O)c2cc(F)c(N3CCNC(c4cc5ccccc5o4)C3)cc21 (stereo not given)
187 to 188 | CN(C)C(=O)C1CCCN(c2cc3ccccc3c(=O)[nH]2)C1 (stereo not given)
293 to 295 | O=C(Nc1ccccc1)N1CCc2[nH]cc3c(=O)n(-c4ccc(Cl)cc4)nc-3c2C1
128 | CCOC(=O)c1cnc2c(C)cc(-c3ccc(C(F)(F)F)cc3)cn12
157 to 161 | Cn1c(=O)cnn(-c2ccc(Cl)c(C(=O)NCCc3ccccc3Cl)c2)c1=O

melting point [°C] | SMILES
78 to 80 | COC1=CCC2=C(CCC3C2CCC2(C)C3CCC2N(C)CCCN(C)C)C1 (stereo not given)
203 to 206 | Nc1nnc2ccc(-c3ccco3)nn12
131 to 133 | N[C@H]1CCCC[C@H]1CCC(O)(P(=O)(O)O)P(=O)(O)O (relative stereo)
118 to 119 | COc1cc(COc2nn(-c3ccc(C(F)(F)F)cc3)cc2/C=C/CO)ccc1OCc1nc(-c2ccccc2)oc1C
129 to 130 | CSc1nc(NC2CCCCC2)c2nonc2n1
133 to 136 | COc1cc(C(C)C(=O)O)ccc1-c1ccc(F)cc1 (stereo not given)
120 to 123 | CN(C)c1nonc1-c1nc2ccccc2n1CC(=O)c1ccc(Cl)cc1
90 to 91 | CN1CCN(c2ccc(NC(=O)C3(C)CC3)cc2C(F)(F)F)C1=O
213 to 215 | CS(=O)(=O)Nc1ccc2c(c1)C(=O)CC1(CCN(CCc3ccc(Cl)nc3)CC1)O2
127 to 128 | CC1(C)[C@H](Cl)CC[C@]2(CI)OC(=O)C[C@H]12
220 to 222 | O=C(NO)c1ccc(C(=O)NOCc2ccc3ccccc3c2)cc1
< 20 | CCOC(=O)C(C)Oc1ccc(-c2ccc(CCNC(=O)c3cc(Cl)ccc3OC)cc2)cc1 (stereo not given)
138 to 139 | CC(C)c1cccc(C(C)C)c1NC(=O)CN1CCN(CCSc2nc3cccc(CO)c3o2)CC1
96 to 97 | CC(F)(F)c1cccc(C(=O)O)c1
170 to 171 | CN(C(=O)Cn1c(-c2ccc(Cl)cc2)nc2cccnc21)c1ccccc1
170 to 173 | COc1ccc(-c2cc(C)cn2-c2ccc(S(N)(=O)=O)cc2)cc1F
106 | O=C(O)CCN(C(=O)Cl)c1cccc(Cl)c1
70 to 73 | COC(=O)c1ccc(C(=O)c2ccccc2)o1
220 to 222 | O=C(O)c1cccc2c(-c3ccccc3)coc12
129 to 131 | COc1cc2c3ccc(OC)c(OC)c3n(C(=O)c3ccc(C(C)(C)C)cc3)c2cc1OC
68 to 70 | O=C1OCCC1=Cc1ccccc1OCC1CO1 (stereo not given)
180 to 182 | Nc1sc2c(c1C(=O)c1ccc(I)c3ccccc13)CCCC2

melting point [°C] | SMILES
65 to 67 | Cc1cc(C)c(C(=O)c2ccccc2C)c(O)c1
135 | CS(=O)c1nc2ccc(C(F)(F)F)cc2[nH]1 (stereo not given)
172 to 173 | C(#Cc1ccc(-c2nc3ccccc3s2)cc1)c1ccccc1
43 to 46 | C=CCN1CC(=O)N(c2c(C)cccc2C)C1=S
131 to 136 | O=C(Nc1cc(Cl)c(F)cc1-c1ccccc1)c1cccnc1Cl
88 to 91 | N#CC(c1ccccc1)(c1ccccc1)[C@H]1CCCN(CCc2ccc3c(c2)CCC3)C1
75 to 78 | COc1ccccc1SC(CC(C)C)c1c(O)cc(-c2ccccc2)oc1=O (stereo not given)
179 to 180 | CC1(C)C(=O)C(C)(C)c2cc(N)c(N)cc21
147 to 149 | CCCCc1c(C(=O)N(C)Cc2ccc3c(Br)c(OCc4nnn[nH]4)ccc3c2)c2ccccc2n1C
68 to 70 | CCCCCCCCNC(=O)/C=C\SC(=O)CC
223 to 224 | CCCOc1ccc(F)cc1-c1ccc(C(N)=O)c(=O)[nH]1
271 | Cc1cc(-c2ccc(Cl)cc2)cn2c(-c3nc(-c4ccc(S(N)(=O)=O)s4)no3)cnc12
162 | Cc1cccc(-c2n[nH]cc2-c2ccc(F)c(-c3ncc(C(C)(C)O)cn3)c2)n1
122 | CN(C)S(=O)(=O)NC1CCC(CCN2CCC(c3cccc4c3CCO4)CC2)CC1 (stereo not given)
88 to 102 | CNC(=O)C(Cc1ccc(OC)cc1)NC(=O)C(C)(CC(C)C)c1cccc(C(F)(F)F)c1S (stereo not given)
195 to 196 | CCCOc1cc2c(cc1C1CCCc3oc(/C=C/C(=O)O)cc31)C(C)(C)CCC2(C)C (stereo not given)
146 to 147 | COCCOc1ccc(/C=C(\C)C(=O)NS(=O)(=O)C(F)(F)F)c(Oc2ncc(C(F)(F)F)cc2Cl)c1
181 to 184 | COc1ccc(-n2nc(Sc3cc(OC)cc(OC)c3)c(C)c(C#N)c2=O)cc1
71 to 72 | CCCCCCC(=O)C=Cc1ccc(OC(C)=O)c(OC(C)=O)c1
222 to 223 | CN(c1cc(OC(F)(F)F)cc2cc(C(=O)NCCSC(c3ccccc3)(c3ccccc3)c3ccccc3)[nH]c12)S(=O)(=O)c1cccs1
169 to 171 | COc1cc(-n2nc(C#N)cc2-c2ccc(S(C)(=O)=O)cc2)ccc1F

SMILES | melting point [°C]
CNC(=O)C[C@@H]1N=C(c2ccc(Cl)cc2)c2c(sc(C)c2C)-n2c(C)nnc21 | 143 to 145
COC(=O)CCN(CC1CC2c3cccc4[nH]cc(c34)CC2N(C)C1)C(=O)NC(C)C (stereo not given) | 112 to 115
Fc1cccc(C2(N3CCC3)CCC3(CC2)NCCc2c3[nH]c3ccccc23)c1 (stereo not given) | 186 to 188
CCCN(C)C1CCc2c(cccc2NC(C)=O)C1 (stereo not given) | 78
CCOC(=O)c1ncn2c1[C@@H]1CCCN1C(=O)c1c(Cl)cccc1-2 | 182 to 184
